Legend:
[1] = biological target: Fms kinase (Homo sapiens, UniProt P07333); assay: Fms kinase biochemical activity assay (AlphaScreen, biotin-(E4Y)10 phosphorylation); details: 100 μM ATP; read-out: Biochemical Inhibition IC50 Fms
Procedure: In one assay the biochemical activity IC50 values are determined with respect to inhibition of Fms kinase activity, where inhibition of phosphorylation of a peptide substrate is measured as a function of compound concentration. Compounds to be tested, dissolved in DMSO (1 μL), are added to a white 384-well plate (Costar #3705). Working stocks of Fms kinase (Invitrogen #PV3249), biotin-(E4Y)10 substrate (Upstate Biotech, Cat#12-440), and ATP (Sigma, Cat#A-3377) are prepared in 25 mM Hepes pH 7.5, 0.5 mM MgCl2, 2 mM MnCl2, 2 mM DTT, 0.01% BSA, and 0.01% Tween-20. All components are added to the 384-well plate for a final concentration of 1 ng/well Fms, 30 nM biotin-(E4Y)10 (Upstate Biotechnology) and 100 μM ATP in a volume of 20 μL. Each sample is at 5% DMSO. The plate is then incubated for 20 minutes at 30° C. Just before use, working stocks of donor and acceptor beads from the AlphaScreen PY20 Detection Kit (PerkinElmer, Cat#676601M) are prepared in 25 mM Hepes pH 7.5, pH 7.4, 100 mM EDTA, 0.01% BSA. To stop the reaction, the plate is uncovered in the dark and 5 μL of Donor Beads solution (Streptavidin beads) is added to each well. The plate is incubated at room temperature for 20 minutes. Five microliters of Acceptor Beads solution (PY20 coated beads) are then added to each well. The final concentration of each bead is 10 μg/mL. The plates are incubated at room temperature for 60 minutes. Fluorescence signal is recorded on the Envision reader. Phosphorylated substrate results in binding of the PY20 antibody and association of the donor and acceptor beads such that signal correlates with kinase activity. The signal vs. compound concentration is used to determine the IC50.

[2] = biological target: T1, BCR-FMS BaF3 cells (Homo sapiens, UniProt P07333); assay: BaF3 BCR-FMS cell proliferation assay (ATPlite); format: cell-based; details: read-out: Inhibition of Cell Proliferation IC50, BCR/BaF3 Fms
T1 construct: fused on or other part: P11274 (Breakpoint cluster region protein)
T1 sequence (P07333 582-910): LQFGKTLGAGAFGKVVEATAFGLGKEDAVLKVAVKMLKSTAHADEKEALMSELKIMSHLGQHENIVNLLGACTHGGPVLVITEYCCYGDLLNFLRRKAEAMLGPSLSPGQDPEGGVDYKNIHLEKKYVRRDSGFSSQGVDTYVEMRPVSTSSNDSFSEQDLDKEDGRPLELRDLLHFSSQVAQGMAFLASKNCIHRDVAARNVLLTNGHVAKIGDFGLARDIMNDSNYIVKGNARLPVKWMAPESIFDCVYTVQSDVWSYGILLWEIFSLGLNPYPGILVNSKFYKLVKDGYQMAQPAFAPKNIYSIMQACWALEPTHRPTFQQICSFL
Procedure: (§1) Compounds are assessed in a variety of cell based assays. For example BaF3 cells engineered with any of BCR-FMS, BCR-KIT, BCR-FLT3, BCR-NTRK1, BCR-NTRK2, and BCR-NTRK3, are used in cell proliferation assays to assess inhibitory activity of Fms, Kit, Flt-3, TrkA, TrkB, and TrkC, respectively. An MV-4-11 (leukemia) cell proliferation assay is used to assess inhibitory activity in Flt-3, and SKNSH (human neuroblastoma) cell proliferation assay is used to assess efficacy of Fms/Trk inhibitors. Additional cells may be assayed similarly to assess the efficacy of Fms/Trk inhibitors, such as MiaPaCa (human pancreatic cancer) and Capan-1 (human pancreatic carcinoma) cells. Reagent and assay conditions are as follows: • BaF3 cells: • Maintained in RPMI containing 10% FBS, 1% PenStrep, 1% NEAA, and 1% L-Glutamine, supplemented with 1 mg/mL G418 and 5% WEHI-CM (or recombinant murine IL-3). • Confluent cells are split 1:50 to 1:100 every 3-4 days. • MV-4-11 cells: • Maintained in Iscove's Modified Dulbecco's Medium containing 10% FBS. • Confluent cells are split 1:4 every 3-4 days. • SKNSH cells: RPMI containing 10% FBS. On day 1, cells are counted, then centrifuged in a conical tube for 5 minutes at 1000 rpm. The supernatant is removed and cells are re-suspended as follows: • BaF3: resuspend in growth media +1 mg/mL G418 (without WEHFIL-3) to 2×10^5 cells/mL. • MV-4-11: resuspend in growth media to 5×10^5 cells/mL. • SKNSH: resuspend in growth media to 2×10^4 cells/mL. The cells are plated (50 μL, 150 μL for SKNSH cells) in each well of a 96-well dish (Corning 3610) and incubated at 37° C. in 5% CO2 overnight, cells plated to a final concentration of cells as follows: • BaF3: 10,000 cells per well. • MV-4-11: 25,000 cells per well. • SKNSH: 3,000 cells per well. On day 2, compound at a maximum concentration of 5 mM is serially diluted 1:3 for a total of 8 point titration with DMSO as a control. A 1 μL aliquot of each dilution point is added to 249 μL growth media and 50 μL is added to a well containing cells, providing 10 μM compound for the maximum concentration point. The cells are incubated for 3 days at 37° C. in 5% CO2. For SKNSH cells, a 0.75 μL aliquot of appropriate dilution in DMSO is added to 150 μL of cells. On day 5, ATPlite 1 step Luminescence Assay System (Perkin Elmer #6016739) is brought to room temperature along with the cell cultures. ATPlite is added to each well as follows: • BaF3: 25 μL per well. • MV-4-11: 40 μL per well. • SKNSH: 20 μL per well. The cells are incubated at room temperature for 10 minutes, then luminescence is read on Safire reader. The measured luminescence correlates directly with cell number, such that the reading as a function of compound concentration is used to determine the IC50 value.
(§2) It is understood that the results of these assays may vary as assay conditions are varied. Inhibition levels determined under the conditions described herein represent a relative activity for the compounds tested under the specific conditions employed. The cell based assays are likely to show variability due to the complexity of the system and the sensitivity thereof to any changes in the assay conditions. […] Results for compounds that are tested and show substantially no inhibition below the highest tested concentration are represented as “-” in the tables below. In some instances, the compounds were not tested in all of the assays, or assay results were not valid, as indicated by NA in the tables below.

[3] = biological target: T2, BCR-NTRK3 BaF3 cells (Homo sapiens, UniProt Q16288); assay: BaF3 BCR-NTRK3 cell proliferation assay (ATPlite); format: cell-based; details: read-out: Inhibition of Cell Proliferation IC50, BCR/BaF3 TrkC
T2 construct: fused on or other part: P11274 (Breakpoint cluster region protein)
T2 sequence (Q16288 whole entry, the tested form may be a part): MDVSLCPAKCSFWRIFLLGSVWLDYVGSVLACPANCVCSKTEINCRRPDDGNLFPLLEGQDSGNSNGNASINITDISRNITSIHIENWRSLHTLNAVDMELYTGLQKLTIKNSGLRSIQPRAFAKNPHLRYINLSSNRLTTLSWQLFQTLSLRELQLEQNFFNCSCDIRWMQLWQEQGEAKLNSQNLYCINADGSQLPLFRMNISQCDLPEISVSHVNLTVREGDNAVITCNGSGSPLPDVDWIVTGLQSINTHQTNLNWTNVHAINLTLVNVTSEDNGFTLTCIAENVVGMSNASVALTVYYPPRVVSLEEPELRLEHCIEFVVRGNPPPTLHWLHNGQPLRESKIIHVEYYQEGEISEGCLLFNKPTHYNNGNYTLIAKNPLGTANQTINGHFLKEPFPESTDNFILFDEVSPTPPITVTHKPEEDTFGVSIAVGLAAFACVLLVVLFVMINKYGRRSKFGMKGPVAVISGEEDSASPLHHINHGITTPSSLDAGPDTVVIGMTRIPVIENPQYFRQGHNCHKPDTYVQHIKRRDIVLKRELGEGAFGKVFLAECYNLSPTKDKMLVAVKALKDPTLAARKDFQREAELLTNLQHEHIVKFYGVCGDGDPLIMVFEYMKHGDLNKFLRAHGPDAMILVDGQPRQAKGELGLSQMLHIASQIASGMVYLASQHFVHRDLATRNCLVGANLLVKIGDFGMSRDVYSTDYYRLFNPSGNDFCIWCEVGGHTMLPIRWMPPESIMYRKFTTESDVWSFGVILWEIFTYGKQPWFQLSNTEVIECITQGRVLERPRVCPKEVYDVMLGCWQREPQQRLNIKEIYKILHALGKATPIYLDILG
Procedure: as §1, §2

Sequence of Fms kinase (P07333 20-972): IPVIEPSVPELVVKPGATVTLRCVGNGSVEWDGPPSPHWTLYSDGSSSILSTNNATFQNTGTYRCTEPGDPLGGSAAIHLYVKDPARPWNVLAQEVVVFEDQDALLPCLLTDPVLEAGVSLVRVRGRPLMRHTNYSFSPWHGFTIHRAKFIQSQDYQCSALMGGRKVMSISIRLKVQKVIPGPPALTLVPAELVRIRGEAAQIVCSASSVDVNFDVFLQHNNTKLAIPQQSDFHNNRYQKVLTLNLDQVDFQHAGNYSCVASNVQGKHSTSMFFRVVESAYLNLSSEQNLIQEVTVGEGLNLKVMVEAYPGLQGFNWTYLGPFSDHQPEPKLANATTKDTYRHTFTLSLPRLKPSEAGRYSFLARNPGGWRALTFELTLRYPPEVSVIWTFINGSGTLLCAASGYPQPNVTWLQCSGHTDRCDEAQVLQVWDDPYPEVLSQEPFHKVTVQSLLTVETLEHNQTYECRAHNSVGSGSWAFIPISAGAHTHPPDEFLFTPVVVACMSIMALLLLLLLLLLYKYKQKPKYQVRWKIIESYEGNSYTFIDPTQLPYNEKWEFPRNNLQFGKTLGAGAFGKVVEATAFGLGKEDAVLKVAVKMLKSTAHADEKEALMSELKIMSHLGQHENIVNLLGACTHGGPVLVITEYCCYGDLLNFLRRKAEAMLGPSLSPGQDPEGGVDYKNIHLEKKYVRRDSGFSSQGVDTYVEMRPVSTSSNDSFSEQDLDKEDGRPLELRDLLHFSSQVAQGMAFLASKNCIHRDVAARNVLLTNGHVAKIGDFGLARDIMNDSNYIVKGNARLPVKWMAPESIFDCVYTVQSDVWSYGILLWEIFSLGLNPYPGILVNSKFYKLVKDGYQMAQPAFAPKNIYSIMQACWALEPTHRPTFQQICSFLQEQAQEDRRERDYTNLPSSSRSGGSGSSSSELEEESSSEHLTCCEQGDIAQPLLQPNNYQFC

Row | IC50 [1] | IC50 [2] | IC50 [3] | SMILES
1 | < 100 nM | < 1000 nM | > 10000 nM | CC1CCC(Nc2ncc(Cc3c[nH]c4ncc(Cl)cc34)cn2)CC1 (centres unmarked) [Compound P-3009, [5-(5-Chloro-1H-pyrrolo[2,3-b]pyridin-3-ylmethyl)-pyrimidin-2-yl]-(4-methyl-cyclohexyl)-amine]
2 | < 10 nM | < 100 nM | > 10000 nM | Cc1cnc2[nH]cc(Cc3cnc(Nc4ccc(F)cc4)nc3)c2c1 [Compound P-3010, (4-Fluoro-phenyl)-[5-(5-methyl-1H-pyrrolo[2,3-b]pyridin-3-ylmethyl)-pyrimidin-2-yl]-amine]
3 | < 10 nM | < 100 nM | < 100 nM | Clc1ccc(Nc2ncc(Cc3c[nH]c4ncc(Cl)cc34)cn2)cc1 [Compound P-3011, (4-Chloro-phenyl)-[5-(5-chloro-1H-pyrrolo[2,3-b]pyridin-3-ylmethyl)-pyrimidin-2-yl]-amine]
4 | < 10 nM | < 100 nM | < 1000 nM | Fc1ccc(Nc2ncc(Cc3c[nH]c4ncc(Cl)cc34)cn2)cc1 [Compound P-3012, [5-(5-Chloro-1H-pyrrolo[2,3-b]pyridin-3-ylmethyl)-pyrimidin-2-yl]-(4-fluoro-phenyl)-amine]
5 | < 10 nM | < 100 nM | > 10000 nM | Fc1nc(NC2CCC(F)(F)CC2)ccc1Cc1c[nH]c2ncc(Cl)cc12 [Compound P-3013, [5-(5-Chloro-1H-pyrrolo[2,3-b]pyridin-3-ylmethyl)-6-fluoro-pyridin-2-yl]-(4,4-difluoro-cyclohexyl)-amine]
6 | < 10 nM | < 100 nM | > 10000 nM | Fc1ccccc1Nc1ncc(Cc2c[nH]c3ncc(Cl)cc23)cn1 [Compound P-3014, [5-(5-Chloro-1H-pyrrolo[2,3-b]pyridin-3-ylmethyl)-pyrimidin-2-yl]-(2-fluoro-phenyl)-amine]
7 | < 10 nM | < 1000 nM | > 10000 nM | Clc1cnc2[nH]cc(Cc3cnc(Nc4ccccc4Cl)nc3)c2c1 [Compound P-3015, (2-Chloro-phenyl)-[5-(5-chloro-1H-pyrrolo[2,3-b]pyridin-3-ylmethyl)-pyrimidin-2-yl]-amine]
8 | < 100 nM | < 100 nM | < 10 nM | O=C(c1ccc(NC2CCC(F)(F)CC2)nc1F)c1c[nH]c2ncnc(NCC(F)(F)F)c12 [Compound P-4061, [6-[(4,4-difluorocyclohexyl)amino]-2-fluoro-3-pyridyl]-[4-(2,2,2-trifluoroethylamino)-7H-pyrrolo[2,3-d]pyrimidin-5-yl]methanone]
9 | < 10 nM | < 100 nM | < 10 nM | CCc1ccc(Nc2ccc(C(=O)c3c[nH]c4ncnc(NCC(C)(C)O)c34)c(F)n2)cn1 [Compound P-4064, [6-[(6-ethyl-3-pyridyl)amino]-2-fluoro-3-pyridyl]-[4-[(2-hydroxy-2-methyl-propyl)amino]-7H-pyrrolo[2,3-d]pyrimidin-5-yl]methanone]
10 | < 1000 nM |  |  | CCc1ccc(Nc2ccc(C(=O)c3c[nH]c4ncnc(Nc5ccc(C)nc5)c34)c(F)n2)cn1 [Compound P-4086, [6-[(6-ethyl-3-pyridyl)amino]-2-fluoro-3-pyridyl]-[4-[(6-methyl-3-pyridyl)amino]-7H-pyrrolo[2,3-d]pyrimidin-5-yl]methanone]
11 | < 10 nM | < 10 nM |  | Cc1ccc(Nc2ccc(C(=O)c3c[nH]c4ncnc(NCC5CC5)c34)c(F)n2)cn1 [Compound P-4113, [4-(cyclopropylmethylamino)-7H-pyrrolo[2,3-d]pyrimidin-5-yl]-[2-fluoro-6-[(6-methyl-3-pyridyl)amino]-3-pyridyl]methanone]
12 | < 10 nM | < 10 nM |  | CCCNc1ncnc2[nH]cc(C(=O)c3ccc(Nc4ccc(C)nc4)nc3F)c12 [Compound P-4114, [2-fluoro-6-[(6-methyl-3-pyridyl)amino]-3-pyridyl]-[4-(propylamino)-7H-pyrrolo[2,3-d]pyrimidin-5-yl]methanone]

Source: patent US8901118B2, “Compounds and methods for kinase modulation, and indications therefor” (Plexxikon Inc., priority 2010, dated 2014)
